The results in this text go back to PubChem BioAssay (NCI).

SMILES strings stand for the structures.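 A five-concentration, 48-hour dose response in 96-well plates underlies each endpoint, interpolated linearly between surrounding concentrations. The concentration for full growth arrest is given as TGI.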

Among the test systems are SK-OV-3 ovarian; ACHN renal; COLO 205 colon; SF-295 CNS; M14 melanoma; TK-10 renal; EKVX NSCLC; MCF7 breast; CCRF-CEM leukemia; DU-145 prostate; MALME-3M melanoma; A498 renal; HOP-62 NSCLC; MDA-MB-231 breast; HCT-15 colon; BT-549 breast; HL-60(TB) leukemia; SF-268 CNS; SR leukemia.
Holding throughout (test): growth of human tumour cells (NCI), 48 h

With `O=C1NC(=O)C(c2c[nH]c3cc(Br)ccc23)=C1c1cn(C(c2ccccc2)(c2ccccc2)c2ccccc2)cn1`, the TGI was > 100 µM in the test with SK-OV-3 ovarian; > 100 µM with ACHN renal; 27.4 µM with COLO 205 colon; > 100 µM in the test with SF-295 CNS; 29.9 µM with M14 melanoma; 38.4 µM in the test on TK-10 renal. Also, the TGI in the test with EKVX NSCLC was 29.1 µM; with MCF7 breast, 40.4 µM; in the test with CCRF-CEM leukemia it was > 100 µM; in the test with DU-145 prostate, 62.8 µM; in the test with MALME-3M melanoma it was 56.8 µM; in the test with A498 renal, 37.2 µM. Further, the TGI stood at 83.9 µM in the test on HOP-62 NSCLC; 21.4 µM in the test on MDA-MB-231 breast; 37.6 µM in the test with HCT-15 colon; 38.8 µM in the test on BT-549 breast; 39.5 µM with HL-60(TB) leukemia; 33.1 µM in the test with SF-268 CNS. In addition, the TGI with SR leukemia is 32.3 µM.
Turning to `CCOC(=O)c1nc2c(Cl)c3ncccc3cc2[nH]c1=O`, the TGI in the test with SK-OV-3 ovarian, in the test on ACHN renal, in the test on COLO 205 colon, in the test with SF-295 CNS, in the test with M14 melanoma and in the test with TK-10 renal was > 100 µM in each case. Also, the TGI in the test on EKVX NSCLC, with MCF7 breast, in the test with CCRF-CEM leukemia, in the test on DU-145 prostate, with MALME-3M melanoma and in the test with A498 renal was > 100 µM throughout. The TGI was > 100 µM in the test with HOP-62 NSCLC; > 100 µM in the test on MDA-MB-231 breast; 56.5 µM with HCT-15 colon; 94.7 µM in the test with BT-549 breast; > 100 µM with HL-60(TB) leukemia; > 100 µM in the test on SF-268 CNS. In the test on SR leukemia, the TGI was > 100 µM.
`O=C(O)c1ccc(NNc2cc(=O)[nH]c(=O)[nH]2)cc1`: the TGI with SK-OV-3 ovarian, with ACHN renal, in the test on COLO 205 colon, in the test with SF-295 CNS, with M14 melanoma and with TK-10 renal was > 100 µM in each case. In addition, the TGI in the test on EKVX NSCLC, in the test on MCF7 breast, in the test on CCRF-CEM leukemia, in the test with DU-145 prostate, with MALME-3M melanoma and in the test with A498 renal was > 100 µM throughout. Moreover, the TGI in the test on HOP-62 NSCLC, in the test with MDA-MB-231 breast, in the test with HCT-15 colon, in the test on BT-549 breast, with HL-60(TB) leukemia and in the test with SF-268 CNS was > 100 µM in each case. Further, the TGI with SR leukemia was > 100 µM.
For the molecule `O=C(NCCCNC(=O)c1ccc2c(O)c(O)ccc2c1)c1ccc2c(O)c(O)ccc2c1`, the TGI with SK-OV-3 ovarian is > 100 µM; with ACHN renal, 55.9 µM; in the test on COLO 205 colon, 50.6 µM; with SF-295 CNS, 38.2 µM; in the test on M14 melanoma it was 78.8 µM; in the test on TK-10 renal, > 85.6 µM. Further, the TGI in the test with EKVX NSCLC was > 79.9 µM; in the test with MCF7 breast, > 100 µM; in the test on CCRF-CEM leukemia it was > 100 µM; with DU-145 prostate, > 100 µM; in the test on MALME-3M melanoma it was > 100 µM; with A498 renal, 98 µM. Also, the TGI is 48.1 µM in the test on HOP-62 NSCLC; > 73.4 µM with MDA-MB-231 breast; > 72.5 µM with HCT-15 colon; 35.2 µM in the test with BT-549 breast; > 100 µM in the test on HL-60(TB) leukemia; 58.1 µM in the test with SF-268 CNS. In addition, the TGI with SR leukemia was > 90.7 µM.
For the molecule `N#CC(NNC(=O)Cc1ccccc1)c1ccccc1O` (stereo not drawn), the TGI in the test with SK-OV-3 ovarian is > 85.4 µM; with ACHN renal it was 43.8 µM; with COLO 205 colon, > 100 µM; with SF-295 CNS it was > 100 µM; in the test with M14 melanoma, 24.2 µM; with TK-10 renal, > 100 µM. The TGI with EKVX NSCLC is > 100 µM; in the test on MCF7 breast it was > 89.5 µM; in the test on CCRF-CEM leukemia, > 54.9 µM; in the test on DU-145 prostate it was > 74.6 µM; in the test on MALME-3M melanoma, 73.4 µM; in the test with A498 renal, > 80.3 µM. Besides, the TGI with HOP-62 NSCLC was > 70.6 µM; in the test with MDA-MB-231 breast, > 72 µM; in the test on HCT-15 colon, > 100 µM; in the test on BT-549 breast, > 100 µM; with HL-60(TB) leukemia, 36 µM; in the test on SF-268 CNS, 98.7 µM. In the test with SR leukemia, this molecule showed a TGI of 70.7 µM.
Take `CCN(CC)c1ccc2cc(-c3nnc(-c4ccccc4)o3)c(=O)oc2c1`: the TGI is 21.2 µM with SK-OV-3 ovarian; > 100 µM with ACHN renal; > 100 µM in the test on COLO 205 colon; > 100 µM with SF-295 CNS; > 100 µM with M14 melanoma; > 62.6 µM in the test on TK-10 renal. Moreover, the TGI with EKVX NSCLC, in the test with MCF7 breast, in the test on CCRF-CEM leukemia, in the test on DU-145 prostate, with MALME-3M melanoma and with A498 renal was > 100 µM throughout. In addition, the TGI is > 74.1 µM with HOP-62 NSCLC; > 77.9 µM in the test with MDA-MB-231 breast; > 100 µM with HCT-15 colon; > 100 µM with BT-549 breast; 70.6 µM in the test with HL-60(TB) leukemia; > 100 µM in the test on SF-268 CNS. Moreover, the TGI with SR leukemia was > 100 µM.
With `COc1ccc2c3c1O[C@H]1C(O)CCC4(O)[C@@H](C2)NCC[C@]314` (stereo partly drawn), the TGI in the test on SK-OV-3 ovarian, in the test with ACHN renal, with COLO 205 colon, in the test with SF-295 CNS, in the test on M14 melanoma and in the test on TK-10 renal was > 100 µM each time. For the same molecule, the TGI in the test on EKVX NSCLC, with MCF7 breast, in the test with CCRF-CEM leukemia, with DU-145 prostate, with MALME-3M melanoma and in the test with A498 renal was > 100 µM in each case. Besides, the TGI in the test with HOP-62 NSCLC, in the test with MDA-MB-231 breast, in the test with HCT-15 colon, with BT-549 breast, in the test with HL-60(TB) leukemia and with SF-268 CNS was > 100 µM throughout. Besides, the TGI in the test on SR leukemia is > 100 µM.
